Data reported in patent US20230000870A1, “METHODS OF TREATING CANCER IN BIOMARKER-IDENTIFIED PATIENTS WITH INHIBITORS OF CYCLIN-DEPENDENT KINASE 7 (CDK7)” (Syros Pharmaceuticals, Inc., priority 2019, published 2023).

Columns and labels:
[1] = target: T1, CDK12 (aa686-1082)/Cyclin K complex (Homo sapiens, UniProt Q9NYV4); assay: CDK12 kinase inhibition assay (Caliper/LabChip EZ Reader); format: biochemical; settings: CDK12 (aa686-1082)/Cyclin K 50 nM, ATP 2 mM, 3 hr at 27° C.
T1 construct: CDK12 (aa686-1082)/Cyclin K complex
Description: (§1) Compounds of the invention were assayed for inhibition of CDK7, CDK9, CDK12, and CDK2 activity at Biortus Biosciences (Jiangyin, Jiangsu Province, P.R. of China) using kinase assays for each CDK developed with a Caliper/LabChip EZ Reader (Perkin Elmer, Waltham, Mass.).
(§2) Furthermore, the CDK9 inhibition assay used CDK9/Cyclin T1 complex (8 nM) and “5-FAM-CDK9tide” peptide substrate (2 μM, synthesized fluorophore-labeled peptide with the following sequence: 5-FAM-GSRTPMY-NH2 where 5-FAM is defined above and NH2 signifies a C-terminal amide) with 10 mM MgCl2 in the buffer composition listed above. The CDK12 inhibition assay used CDK12 (aa686-1082)/Cyclin K complex (50 nM) and “5-FAM-CDK9tide” (2 μM) as defined above, with 2 mM MgCl2 in the buffer composition above. Additionally, the CDK2 inhibition assay used CDK2/Cyclin E1 complex (0.5 nM) and “5-FAM-CDK7tide” (2 μM) as defined above, with 2 mM MgCl2 in the buffer composition listed above.
(§3) The incubation period at 27° C. for each CDK inhibition assay was chosen such that the fraction of phosphorylated peptide product produced in each assay, relative to the total peptide concentration, was approximately 20% (±5%) for the uninhibited kinase (35 min. for CDK7, 35 min. for CDK2, 3 hr. for CDK12, 15 min. for CDK9).

A673 cells = assay: Inhibition of proliferation of A673 cells (CyQUANT, 72 hour); format: cell-based, human; settings: read-out: Inhibition of Proliferation of A673 Cells (calculated IC50)
Description: A673 Cells: A673 cells are a cell line derived from human muscle Ewing's sarcoma. Representative compounds of the invention were tested at different concentrations (from 4 μM to […]; 0.5 log serial dilutions) for their ability to inhibit the proliferation of A673 cells. Known CDK inhibitors dinaciclib or N-((1S,3R)-3-((5-chloro-4-(1H-indol-3-yl)pyrimidin-2-yl)amino)cyclohexyl)-5-((E)-4-(dimethylamino)but-2-enamido)picolinamide and triptolide were used as positive controls. Cells were grown in Dulbecco's Modified Eagle's Medium, +10% FBS+1 mM Sodium Pyruvate. The cells were cultured at 37° C. in a humidified chamber in the presence of 5% CO2. Proliferation assays were conducted over a 72 hour time period. CyQUANT® (Life Technologies, Chicago, Ill. USA) was used to assess the anti-proliferative effects of the compounds following manufacturer's directions and utilizing the reagents supplied with the CyQUANT® kit.

CDK2/Cyclin E1 complex = CDK2/Cyclin E1 complex (Homo sapiens, UniProt P24941); assay: CDK2 kinase inhibition assay (Caliper/LabChip EZ Reader); format: biochemical; settings: CDK2/Cyclin E1 0.5 nM, ATP 2 mM, 35 min at 27° C.
Description: as §1, §2, §3

[2] = target: CDK7/Cyclin H/MAT1 complex (Homo sapiens, UniProt P50613); assay: CDK7 kinase inhibition assay (Caliper/LabChip EZ Reader); format: biochemical; settings: CDK7/Cyclin H/MAT1 6 nM, ATP 2 mM, 35 min at 27° C.
Description: as §1, §2, §3

CDK9/Cyclin T1 complex = CDK9/Cyclin T1 complex (Homo sapiens, UniProt P50750); assay: CDK9 kinase inhibition assay (Caliper/LabChip EZ Reader); format: biochemical; settings: CDK9/Cyclin T1 8 nM, ATP 2 mM, 15 min at 27° C.
Description: as §1, §2, §3

Sequence of CDK7/Cyclin H/MAT1 complex (P50613 whole entry): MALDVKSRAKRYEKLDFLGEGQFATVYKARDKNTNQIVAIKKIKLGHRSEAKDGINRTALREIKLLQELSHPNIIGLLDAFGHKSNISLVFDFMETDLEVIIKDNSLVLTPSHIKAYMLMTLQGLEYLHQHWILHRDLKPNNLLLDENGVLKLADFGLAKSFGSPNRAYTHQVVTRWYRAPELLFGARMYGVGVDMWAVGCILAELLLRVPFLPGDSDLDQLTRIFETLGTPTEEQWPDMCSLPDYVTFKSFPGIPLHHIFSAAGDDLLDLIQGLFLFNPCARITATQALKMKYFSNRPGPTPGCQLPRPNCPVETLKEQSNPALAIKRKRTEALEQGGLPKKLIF
Sequence of CDK7/Cyclin H/MAT1 complex (P51946 whole entry partner): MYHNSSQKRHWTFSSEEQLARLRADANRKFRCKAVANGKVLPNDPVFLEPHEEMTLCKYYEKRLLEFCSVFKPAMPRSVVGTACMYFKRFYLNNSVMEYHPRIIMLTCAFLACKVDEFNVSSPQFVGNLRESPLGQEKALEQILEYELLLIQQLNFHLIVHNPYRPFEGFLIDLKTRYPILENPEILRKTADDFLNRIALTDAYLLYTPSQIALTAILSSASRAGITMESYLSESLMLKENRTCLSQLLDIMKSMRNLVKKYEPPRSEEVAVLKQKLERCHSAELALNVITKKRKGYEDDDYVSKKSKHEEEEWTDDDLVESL
Sequence of CDK7/Cyclin H/MAT1 complex (P51948 whole entry partner): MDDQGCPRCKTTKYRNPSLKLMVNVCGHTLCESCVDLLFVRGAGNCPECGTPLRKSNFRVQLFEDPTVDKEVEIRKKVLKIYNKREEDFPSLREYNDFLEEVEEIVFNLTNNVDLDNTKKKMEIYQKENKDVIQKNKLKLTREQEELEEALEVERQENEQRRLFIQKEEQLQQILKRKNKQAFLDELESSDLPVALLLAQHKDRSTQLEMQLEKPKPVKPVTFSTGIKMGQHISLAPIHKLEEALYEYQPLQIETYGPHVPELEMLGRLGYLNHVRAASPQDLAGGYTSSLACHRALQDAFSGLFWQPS
T1 sequence (Q9NYV4 686-1082): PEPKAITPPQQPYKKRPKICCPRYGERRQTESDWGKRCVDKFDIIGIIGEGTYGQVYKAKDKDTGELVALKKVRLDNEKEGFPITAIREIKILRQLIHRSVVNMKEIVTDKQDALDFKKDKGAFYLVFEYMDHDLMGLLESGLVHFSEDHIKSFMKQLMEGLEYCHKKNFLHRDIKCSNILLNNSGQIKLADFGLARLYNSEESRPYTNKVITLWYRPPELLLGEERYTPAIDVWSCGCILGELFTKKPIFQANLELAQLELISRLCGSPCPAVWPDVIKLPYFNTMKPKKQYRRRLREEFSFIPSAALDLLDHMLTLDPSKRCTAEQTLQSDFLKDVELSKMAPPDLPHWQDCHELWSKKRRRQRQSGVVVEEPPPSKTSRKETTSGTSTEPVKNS
T1 sequence (O75909 whole entry partner, the tested form may be a part): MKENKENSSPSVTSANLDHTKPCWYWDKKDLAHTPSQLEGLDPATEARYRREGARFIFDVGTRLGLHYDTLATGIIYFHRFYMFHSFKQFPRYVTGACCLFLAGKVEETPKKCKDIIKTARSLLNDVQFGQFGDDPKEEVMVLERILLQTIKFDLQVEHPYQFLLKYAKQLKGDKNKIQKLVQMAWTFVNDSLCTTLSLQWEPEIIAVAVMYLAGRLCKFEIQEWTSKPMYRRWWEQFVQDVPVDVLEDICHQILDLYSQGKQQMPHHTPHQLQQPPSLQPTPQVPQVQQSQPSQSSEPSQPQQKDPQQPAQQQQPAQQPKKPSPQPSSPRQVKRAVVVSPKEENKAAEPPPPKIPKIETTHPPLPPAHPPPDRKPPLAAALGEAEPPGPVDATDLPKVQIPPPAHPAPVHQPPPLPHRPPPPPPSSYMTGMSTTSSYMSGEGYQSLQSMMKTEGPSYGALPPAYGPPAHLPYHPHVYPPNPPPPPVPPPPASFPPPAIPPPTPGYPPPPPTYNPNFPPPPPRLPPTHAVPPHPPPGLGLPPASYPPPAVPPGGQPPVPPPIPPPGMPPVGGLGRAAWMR
Sequence of CDK9/Cyclin T1 complex (P50750 whole entry): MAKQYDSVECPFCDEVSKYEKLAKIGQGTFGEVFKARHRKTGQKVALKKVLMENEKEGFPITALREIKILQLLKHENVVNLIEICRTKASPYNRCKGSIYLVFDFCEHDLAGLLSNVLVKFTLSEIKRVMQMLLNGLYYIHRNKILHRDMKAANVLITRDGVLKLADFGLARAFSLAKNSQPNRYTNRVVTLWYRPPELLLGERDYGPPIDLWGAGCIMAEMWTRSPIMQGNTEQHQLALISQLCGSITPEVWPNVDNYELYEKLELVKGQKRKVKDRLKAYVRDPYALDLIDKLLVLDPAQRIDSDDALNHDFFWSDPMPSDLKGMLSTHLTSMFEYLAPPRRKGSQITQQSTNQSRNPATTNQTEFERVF
Sequence of CDK9/Cyclin T1 complex (O60563 whole entry partner): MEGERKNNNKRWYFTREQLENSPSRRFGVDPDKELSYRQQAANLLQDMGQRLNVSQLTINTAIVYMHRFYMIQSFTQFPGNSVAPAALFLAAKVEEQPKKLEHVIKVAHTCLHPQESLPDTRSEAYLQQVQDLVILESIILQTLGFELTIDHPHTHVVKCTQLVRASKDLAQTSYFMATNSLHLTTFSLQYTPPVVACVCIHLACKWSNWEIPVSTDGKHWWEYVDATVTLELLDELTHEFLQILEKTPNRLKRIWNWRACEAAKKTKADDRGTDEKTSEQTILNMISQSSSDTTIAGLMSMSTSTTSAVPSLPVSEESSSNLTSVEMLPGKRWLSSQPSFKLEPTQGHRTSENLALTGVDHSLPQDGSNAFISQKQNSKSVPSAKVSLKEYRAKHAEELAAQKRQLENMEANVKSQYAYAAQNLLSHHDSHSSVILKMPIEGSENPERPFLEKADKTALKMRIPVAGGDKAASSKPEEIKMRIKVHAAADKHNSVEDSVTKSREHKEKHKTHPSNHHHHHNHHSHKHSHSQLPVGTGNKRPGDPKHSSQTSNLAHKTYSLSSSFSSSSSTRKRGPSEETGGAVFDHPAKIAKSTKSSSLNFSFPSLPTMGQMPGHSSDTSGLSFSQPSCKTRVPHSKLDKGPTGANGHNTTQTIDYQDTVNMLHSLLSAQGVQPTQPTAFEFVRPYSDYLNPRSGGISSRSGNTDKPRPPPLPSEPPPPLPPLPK

| SMILES | IC50 [1] [nM] | IC50 (CDK2/Cyclin E1 complex) [nM] | IC50 [2] [nM] | IC50 (CDK9/Cyclin T1 complex) [nM] | IC50 (A673 cells) [nM] |
| --- | --- | --- | --- | --- | --- |
| FC(F)(F)c1cnc(NC2CCC3(CC3)NC2)nc1-c1c[nH]c2ccccc12 (stereo not shown) [Compound 212] | 200 to 5000 | 200 to 5000 | < 20 | 200 to 5000 | < 20 |
| Ic1cnc(NC2CCCNC2)nc1-c1c[nH]c2ccccc12 (stereo not shown) [Compound 147] | 200 to 5000 | 20 to 200 | < 20 | 200 to 5000 | < 20 |
| O=C(O)c1cccc2c(-c3nc(NC4CCCNC4)ncc3Cl)c[nH]c12 (stereo not shown) [Compound 154] | 200 to 5000 | ≥ 5000 | 20 to 200 | 200 to 5000 | 200 to 5000 |
| Clc1cnc(NC2CCCNC2)nc1-c1c[nH]c2ccccc12 (stereo not shown) [Compound 101] | 200 to 5000 | 200 to 5000 | 200 to 5000 | 200 to 5000 | 20 to 200 |
| CCOP(=O)(OCC)c1cccc2c(-c3nc(NC4CCCNC4)ncc3C(F)(F)F)c[nH]c12 (stereo not shown) [Compound 168] | ≥ 5000 | ≥ 5000 | 200 to 5000 | ≥ 5000 | 200 to 5000 |
| CCc1cnc(N[C@H]2CCCNC2)nc1-c1n[nH]c2c(F)cccc12 [Compound 143] | 200 to 5000 | 200 to 5000 | < 20 | 200 to 5000 | < 20 |
| CC1CNCC(Nc2ncc(Cl)c(-c3c[nH]c4ccccc34)n2)C1 (stereo not shown) [Compound 182] | 200 to 5000 | ≥ 5000 | 20 to 200 | 200 to 5000 | 20 to 200 |
| c1ccc2c(-c3nc(NC4CCCNC4)ncc3C3CC3)c[nH]c2c1 (stereo not shown) [Compound 135] | ≥ 5000 | ≥ 5000 | 20 to 200 | ≥ 5000 | 200 to 5000 |
| CN1CCCC(Nc2ncc(Cl)c(-c3c[nH]c4ccccc34)n2)C1 (stereo not shown) [Compound 136] | 200 to 5000 | 200 to 5000 | < 20 | 200 to 5000 | 20 to 200 |
| Cn1cc(-c2ccc3c(-c4nc(NC5CCCNC5)ncc4C(F)(F)F)c[nH]c3c2)cn1 (stereo not shown) [Compound 181] | 200 to 5000 | 200 to 5000 | < 20 | 200 to 5000 | < 20 |
| Cc1cccc2c(-c3nc(NC4CCCNC4)ncc3CC(C)C)c[nH]c12 (stereo not shown) [Compound 140] | ≥ 5000 | ≥ 5000 | 200 to 5000 | ≥ 5000 | 200 to 5000 |
| N#Cc1cccc2c(-c3nc(NC4CCCNC4)ncc3C(F)(F)F)c[nH]c12 (stereo not shown) [Compound 153] | 20 to 200 | 20 to 200 | < 20 | 200 to 5000 | < 20 |
| Cc1cnc(NC2CCCNC2)nc1-c1c[nH]c2ccccc12 (stereo not shown) [Compound 119] | 200 to 5000 | ≥ 5000 | 20 to 200 | 200 to 5000 | 20 to 200 |
| O=C(c1ccc2c(-c3nc(NC4CCCNC4)ncc3C(F)(F)F)c[nH]c2c1)N1CCC(O)C1 (stereo not shown) [Compound 204] | 200 to 5000 | ≥ 5000 | < 20 | ≥ 5000 | 200 to 5000 |
| CC(C)(O)Cn1cc(-c2ccc3c(-c4nc(N[C@H]5CCCNC5)ncc4C(F)(F)F)c[nH]c3c2)cn1 [Compound 214] | 200 to 5000 | 200 to 5000 | 20 to 200 | 200 to 5000 | 20 to 200 |
| Cc1nn(C)cc1-c1cccc2c(-c3nc(NC4CCCNC4)ncc3C(F)(F)F)c[nH]c12 (stereo not shown) [Compound 171] | 200 to 5000 | 200 to 5000 | < 20 | 200 to 5000 | < 20 |
| Cc1ccc2[nH]cc(-c3nc(NC4CCCNC4)ncc3Cl)c2c1 (stereo not shown) [Compound 108] | 200 to 5000 | 200 to 5000 | 20 to 200 | 200 to 5000 | 200 to 5000 |
| CC1CNCC(Nc2ncc(Cl)c(-c3c[nH]c4ccccc34)n2)C1 (stereo not shown) [Compound 201] | 20 to 200 | 200 to 5000 | < 20 | 200 to 5000 | < 20 |
| Clc1cnc(N[C@H]2CCCNC2)nc1-c1n[nH]c2ccccc12 [Compound 174] | 200 to 5000 | 200 to 5000 | < 20 | 200 to 5000 | 20 to 200 |
| Cc1cn(-c2cccc3c(-c4nc(NC5CCCNC5)ncc4C(F)(F)F)c[nH]c23)cn1 (stereo not shown) [Compound 172] | 200 to 5000 | 200 to 5000 | < 20 | 200 to 5000 | < 20 |

Second part, led by results:

| IC50 [1] [nM] | IC50 (CDK2/Cyclin E1 complex) [nM] | IC50 [2] [nM] | IC50 (CDK9/Cyclin T1 complex) [nM] | SMILES | IC50 (A673 cells) [nM] |
| --- | --- | --- | --- | --- | --- |
| ≥ 5000 | 200 to 5000 | 20 to 200 | ≥ 5000 | CNC(=O)C1CNCC(Nc2ncc(C(F)(F)F)c(-c3c[nH]c4ccccc34)n2)C1 (stereo not shown) [Compound 252] | 200 to 5000 |
| ≥ 5000 | ≥ 5000 | 20 to 200 | ≥ 5000 | CC(C)C1CC[C@H](Nc2ncc(C(F)(F)F)c(-c3c[nH]c4ccccc34)n2)CN1 (stereo partly shown) [Compound 257] | 200 to 5000 |
| ≥ 5000 | ≥ 5000 | 200 to 5000 | ≥ 5000 | CC(O)c1cnc(NC2CCCNC2)nc1-c1c[nH]c2ccccc12 (stereo not shown) [Compound 234] | < 20 |
| ≥ 5000 | ≥ 5000 | 200 to 5000 | ≥ 5000 | CC(O)c1cnc(NC2CCCNC2)nc1-c1c[nH]c2ccccc12 (stereo not shown) [Compound 247] | 200 to 5000 |
| ≥ 5000 | ≥ 5000 | 20 to 200 | ≥ 5000 | FC(F)(F)c1cnc(N[C@@H]2CNCc3ccccc32)nc1-c1c[nH]c2ccccc12 [Compound 215] | 200 to 5000 |
| 200 to 5000 | 200 to 5000 | < 20 | 200 to 5000 | N#Cc1cc(-c2ccc3c(-c4nc(NC5CCCNC5)ncc4C(F)(F)F)c[nH]c3c2)c[nH]1 (stereo not shown) [Compound 233] | 20 to 200 |
| 200 to 5000 | ≥ 5000 | 200 to 5000 | ≥ 5000 | CC(C)C1CCC(Nc2ncc(C(F)(F)F)c(-c3c[nH]c4ccccc34)n2)CN1 (stereo not shown) [Compound 260] | 200 to 5000 |
| 200 to 5000 | 200 to 5000 | < 20 | 200 to 5000 | Cc1c(-c2ccc3c(-c4nc(NC5CCCNC5)ncc4C(F)(F)F)c[nH]c3c2)cnn1C (stereo not shown) [Compound 227] | 20 to 200 |
| 200 to 5000 | 200 to 5000 | < 20 | 200 to 5000 | CS(=O)(=O)Cc1ccc2c(-c3nc(NC4CCCNC4)ncc3C(F)(F)F)c[nH]c2c1 (stereo not shown) [Compound 219] | 20 to 200 |
| 200 to 5000 | ≥ 5000 | 20 to 200 | 200 to 5000 | CC(C)(O)CCc1ccc2c(-c3nc(NC4CCCNC4)ncc3C(F)(F)F)c[nH]c2c1 (stereo not shown) [Compound 242] | 20 to 200 |
| 200 to 5000 | 200 to 5000 | < 20 | 200 to 5000 | CCC1CCC(Nc2ncc(C(F)(F)F)c(-c3c[nH]c4ccccc34)n2)CN1 (stereo not shown) [Compound 217] | 20 to 200 |
| 200 to 5000 | 200 to 5000 | < 20 | 200 to 5000 | CCc1cnc(NC2CCCNC2)nc1-c1n[nH]c2ncccc12 (stereo not shown) [Compound 262] | 20 to 200 |
| 200 to 5000 | ≥ 5000 | < 20 | ≥ 5000 | N#Cc1cn(-c2ccc3c(-c4nc(NC5CCCNC5)ncc4C(F)(F)F)c[nH]c3c2)cn1 (stereo not shown) [Compound 249] | 20 to 200 |
| 200 to 5000 | 200 to 5000 | 20 to 200 | 200 to 5000 | CCCCCc1ccc2c(-c3nc(N[C@@H]4CCCNC4)ncc3C(F)(F)F)c[nH]c2c1 [Compound 241] | 20 to 200 |
| ≥ 5000 | 200 to 5000 | 200 to 5000 | ≥ 5000 | FC(F)(F)c1cnc(NC2CNCc3ccccc32)nc1-c1c[nH]c2ccccc12 (stereo not shown) [Compound 216] | 200 to 5000 |
